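Briefly, cells in 96-well plates were exposed to five compound concentrations for 48 h, and endpoints were estimated by linear interpolation. TGI denotes the concentration required for complete inhibition of growth.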
Each compound was assayed on SNB-19 CNS (assay: DTP human tumour cell line panel, 48 h).

SMILES | TGI [µM]
COc1cccc(C2c3cc4c(cc3OC(N3CCCCC3)C2C)OCO4)c1O (centres undefined) | > 100
N#Cc1n[nH]n(-c2ccc(Br)cc2)c1=O | > 100
O=C1c2ccccc2C(=O)c2c(NCC(O)CO)ccc(NCC(O)CO)c21 (centres undefined) | > 100
COc1cccc(C(=O)Oc2ccc(OS(=O)(=O)c3ccc(C)cc3)cc2)c1C#N | > 100
CC1=C(C)CC2C(=O)N(c3cc(C(C)(C)C)ccc3C(C)(C)C)C(=O)C2C1 (centres undefined) | > 100
N=C(N)C1CN(CCc2c[nH]c3ccccc23)C(=O)NC1=O (centres undefined) | > 100
O=[N+]([O-])c1ccc(CN(CCCl)OCCCl)cc1 | > 100
CC1=NN(c2nc(N)nc(/C(C#N)=C\c3ccc([N+](=O)[O-])s3)n2)C(C)(C)C1 | 5.97
O=c1[nH]cnc2c1cnn2Cc1cn(CCCCO)nn1 | > 100
CN1CCc2c([nH]c3ccccc23)C1 | > 100
Cn1c(=O)c2c(ncn2CCNC(CO)C(O)c2ccc([N+](=O)[O-])cc2)n(C)c1=O (centres undefined) | > 100
CCCNC(=O)NNC(=O)c1c[nH]c2nc(C)ccc2c1=O | > 100
O=C(Nc1ccccc1)c1cc(S(=O)(=O)NC2=NC(c3ccccc3)c3cc(Cl)ccc3N2)c(SSc2cc(Cl)c(C(=O)Nc3ccccc3)cc2S(=O)(=O)NC2=NC(c3ccccc3)c3cc(Cl)ccc3N2)cc1Cl (centres undefined) | > 100
COc1ccc(C2SC(N)=Nc3c2c(C)nn3C(=O)c2ccncc2)cc1OC (centres undefined) | > 10
CC1CC(OP(=O)(OCc2ccccc2)OCc2ccccc2)[C@@H](OCc2ccccc2)C(OCc2ccccc2)C1OCc1ccccc1 (some centres undefined) | > 100
CCO/C(O)=C(/C(=N)N1CCOCC1)C(=O)Nc1ccc(F)cc1 | > 100
C[C@H]1[C@H]2[C@H]3CC[C@@H]4[C@@]5(C)CC[C@H](O)C(C)(C)[C@@H]5CC[C@@]4(C)[C@]3(C)C[C@H](O)[C@@]2(C)C[C@H]2O[C@]21C | 49.7
O=C(O)CCCc1nc2c(n1Cc1ccccc1)C(=O)c1ccccc1C2=O | > 100
CCOC(=O)NC(Nc1ccc(C)cc1)(C(F)(F)F)C(F)(F)F | > 100
CCOC(=O)CCC(NC(=O)Cc1ccc(Nc2nc3cc(F)c(F)cc3nc2C(=O)OCC)cc1)C(=O)OCC (centres undefined) | > 100
[N-]=[N+]=Nc1c([N+](=O)[O-])c(=O)n(-c2ccccc2)c2ccccc12 | > 100

Each compound was assayed on MCF7 breast (assay: DTP human tumour cell line panel, 48 h).

SMILES | TGI [µM]
Cc1ccc(S(=O)(=O)c2[nH]cc(/C(=C\C3CCCCC3)[N+](=O)[O-])c2C2CCCCC2)cc1 | > 100
Nc1ccc2c(c1)C(=O)N1CCC[C@H]1C(=O)N2 | > 100
Cc1ccc2c(c1)C(=S)N1CSCC1c1nncn1-2 (centres undefined) | > 100
CC1(C)C(C#N)C1C1=C(N2CCOCC2)[C@]2(C)C(OC(=O)c3ccccc3)CC[C@@H]2C1 (some centres undefined) | > 100
COc1cccc(C2c3cc4c(cc3OC(N3CCCCC3)C2C)OCO4)c1O (centres undefined) | 57.7
N#Cc1n[nH]n(-c2ccc(Br)cc2)c1=O | > 100
O=C1c2ccccc2C(=O)c2c(NCC(O)CO)ccc(NCC(O)CO)c21 (centres undefined) | > 100
COc1cccc(C(=O)Oc2ccc(OS(=O)(=O)c3ccc(C)cc3)cc2)c1C#N | > 100
CC1=C(C)CC2C(=O)N(c3cc(C(C)(C)C)ccc3C(C)(C)C)C(=O)C2C1 (centres undefined) | 17.2
N=C(N)C1CN(CCc2c[nH]c3ccccc23)C(=O)NC1=O (centres undefined) | > 100
O=[N+]([O-])c1ccc(CN(CCCl)OCCCl)cc1 | > 100
CC1=NN(c2nc(N)nc(/C(C#N)=C\c3ccc([N+](=O)[O-])s3)n2)C(C)(C)C1 | 0.375
O=c1[nH]cnc2c1cnn2Cc1cn(CCCCO)nn1 | > 100
CN1CCc2c([nH]c3ccccc23)C1 | > 100
Cn1c(=O)c2c(ncn2CCNC(CO)C(O)c2ccc([N+](=O)[O-])cc2)n(C)c1=O (centres undefined) | > 100
CCCNC(=O)NNC(=O)c1c[nH]c2nc(C)ccc2c1=O | > 100
O=C(Nc1ccccc1)c1cc(S(=O)(=O)NC2=NC(c3ccccc3)c3cc(Cl)ccc3N2)c(SSc2cc(Cl)c(C(=O)Nc3ccccc3)cc2S(=O)(=O)NC2=NC(c3ccccc3)c3cc(Cl)ccc3N2)cc1Cl (centres undefined) | > 100
COc1ccc(C2SC(N)=Nc3c2c(C)nn3C(=O)c2ccncc2)cc1OC (centres undefined) | > 10
CC1CC(OP(=O)(OCc2ccccc2)OCc2ccccc2)[C@@H](OCc2ccccc2)C(OCc2ccccc2)C1OCc1ccccc1 (some centres undefined) | > 100
CCO/C(O)=C(/C(=N)N1CCOCC1)C(=O)Nc1ccc(F)cc1 | > 100
C[C@H]1[C@H]2[C@H]3CC[C@@H]4[C@@]5(C)CC[C@H](O)C(C)(C)[C@@H]5CC[C@@]4(C)[C@]3(C)C[C@H](O)[C@@]2(C)C[C@H]2O[C@]21C | 42.3
O=C(O)CCCc1nc2c(n1Cc1ccccc1)C(=O)c1ccccc1C2=O | > 100
CCOC(=O)NC(Nc1ccc(C)cc1)(C(F)(F)F)C(F)(F)F | > 100
CCOC(=O)CCC(NC(=O)Cc1ccc(Nc2nc3cc(F)c(F)cc3nc2C(=O)OCC)cc1)C(=O)OCC (centres undefined) | > 100
[N-]=[N+]=Nc1c([N+](=O)[O-])c(=O)n(-c2ccccc2)c2ccccc12 | 67

Each compound was assayed on ACHN renal (assay: DTP human tumour cell line panel, 48 h).

SMILES | TGI [µM]
Cc1ccc(S(=O)(=O)c2[nH]cc(/C(=C\C3CCCCC3)[N+](=O)[O-])c2C2CCCCC2)cc1 | 0.619
Nc1ccc2c(c1)C(=O)N1CCC[C@H]1C(=O)N2 | > 100
Cc1ccc2c(c1)C(=S)N1CSCC1c1nncn1-2 (centres undefined) | > 100
CC1(C)C(C#N)C1C1=C(N2CCOCC2)[C@]2(C)C(OC(=O)c3ccccc3)CC[C@@H]2C1 (some centres undefined) | > 100
COc1cccc(C2c3cc4c(cc3OC(N3CCCCC3)C2C)OCO4)c1O (centres undefined) | 56.5
N#Cc1n[nH]n(-c2ccc(Br)cc2)c1=O | > 100
O=C1c2ccccc2C(=O)c2c(NCC(O)CO)ccc(NCC(O)CO)c21 (centres undefined) | > 100
COc1cccc(C(=O)Oc2ccc(OS(=O)(=O)c3ccc(C)cc3)cc2)c1C#N | > 100
CC1=C(C)CC2C(=O)N(c3cc(C(C)(C)C)ccc3C(C)(C)C)C(=O)C2C1 (centres undefined) | 23.2
N=C(N)C1CN(CCc2c[nH]c3ccccc23)C(=O)NC1=O (centres undefined) | > 100
O=[N+]([O-])c1ccc(CN(CCCl)OCCCl)cc1 | > 100
CC1=NN(c2nc(N)nc(/C(C#N)=C\c3ccc([N+](=O)[O-])s3)n2)C(C)(C)C1 | 0.719
O=c1[nH]cnc2c1cnn2Cc1cn(CCCCO)nn1 | > 100
CN1CCc2c([nH]c3ccccc23)C1 | > 100
Cn1c(=O)c2c(ncn2CCNC(CO)C(O)c2ccc([N+](=O)[O-])cc2)n(C)c1=O (centres undefined) | > 100
CCCNC(=O)NNC(=O)c1c[nH]c2nc(C)ccc2c1=O | > 100
O=C(Nc1ccccc1)c1cc(S(=O)(=O)NC2=NC(c3ccccc3)c3cc(Cl)ccc3N2)c(SSc2cc(Cl)c(C(=O)Nc3ccccc3)cc2S(=O)(=O)NC2=NC(c3ccccc3)c3cc(Cl)ccc3N2)cc1Cl (centres undefined) | > 100
COc1ccc(C2SC(N)=Nc3c2c(C)nn3C(=O)c2ccncc2)cc1OC (centres undefined) | > 10
CC1CC(OP(=O)(OCc2ccccc2)OCc2ccccc2)[C@@H](OCc2ccccc2)C(OCc2ccccc2)C1OCc1ccccc1 (some centres undefined) | > 100
CCO/C(O)=C(/C(=N)N1CCOCC1)C(=O)Nc1ccc(F)cc1 | > 100
C[C@H]1[C@H]2[C@H]3CC[C@@H]4[C@@]5(C)CC[C@H](O)C(C)(C)[C@@H]5CC[C@@]4(C)[C@]3(C)C[C@H](O)[C@@]2(C)C[C@H]2O[C@]21C | 31.1
O=C(O)CCCc1nc2c(n1Cc1ccccc1)C(=O)c1ccccc1C2=O | > 100
CCOC(=O)NC(Nc1ccc(C)cc1)(C(F)(F)F)C(F)(F)F | > 100
CCOC(=O)CCC(NC(=O)Cc1ccc(Nc2nc3cc(F)c(F)cc3nc2C(=O)OCC)cc1)C(=O)OCC (centres undefined) | > 100
[N-]=[N+]=Nc1c([N+](=O)[O-])c(=O)n(-c2ccccc2)c2ccccc12 | 85.5

These compounds were tested on MDA-N (assay: DTP human tumour cell line panel, 48 h).

SMILES | TGI [µM]
Cc1ccc(S(=O)(=O)c2[nH]cc(/C(=C\C3CCCCC3)[N+](=O)[O-])c2C2CCCCC2)cc1 | 0.968
Nc1ccc2c(c1)C(=O)N1CCC[C@H]1C(=O)N2 | > 100
Cc1ccc2c(c1)C(=S)N1CSCC1c1nncn1-2 (centres undefined) | > 100
CC1(C)C(C#N)C1C1=C(N2CCOCC2)[C@]2(C)C(OC(=O)c3ccccc3)CC[C@@H]2C1 (some centres undefined) | > 100
COc1cccc(C2c3cc4c(cc3OC(N3CCCCC3)C2C)OCO4)c1O (centres undefined) | 7.71
N#Cc1n[nH]n(-c2ccc(Br)cc2)c1=O | > 100
O=C1c2ccccc2C(=O)c2c(NCC(O)CO)ccc(NCC(O)CO)c21 (centres undefined) | > 100
COc1cccc(C(=O)Oc2ccc(OS(=O)(=O)c3ccc(C)cc3)cc2)c1C#N | > 100
CC1=C(C)CC2C(=O)N(c3cc(C(C)(C)C)ccc3C(C)(C)C)C(=O)C2C1 (centres undefined) | > 100
N=C(N)C1CN(CCc2c[nH]c3ccccc23)C(=O)NC1=O (centres undefined) | > 100
O=[N+]([O-])c1ccc(CN(CCCl)OCCCl)cc1 | > 100
CC1=NN(c2nc(N)nc(/C(C#N)=C\c3ccc([N+](=O)[O-])s3)n2)C(C)(C)C1 | 2.6
O=c1[nH]cnc2c1cnn2Cc1cn(CCCCO)nn1 | > 100
CN1CCc2c([nH]c3ccccc23)C1 | > 100
Cn1c(=O)c2c(ncn2CCNC(CO)C(O)c2ccc([N+](=O)[O-])cc2)n(C)c1=O (centres undefined) | > 100
CCCNC(=O)NNC(=O)c1c[nH]c2nc(C)ccc2c1=O | > 100
O=C(Nc1ccccc1)c1cc(S(=O)(=O)NC2=NC(c3ccccc3)c3cc(Cl)ccc3N2)c(SSc2cc(Cl)c(C(=O)Nc3ccccc3)cc2S(=O)(=O)NC2=NC(c3ccccc3)c3cc(Cl)ccc3N2)cc1Cl (centres undefined) | > 100
COc1ccc(C2SC(N)=Nc3c2c(C)nn3C(=O)c2ccncc2)cc1OC (centres undefined) | > 10
CC1CC(OP(=O)(OCc2ccccc2)OCc2ccccc2)[C@@H](OCc2ccccc2)C(OCc2ccccc2)C1OCc1ccccc1 (some centres undefined) | > 100
CCO/C(O)=C(/C(=N)N1CCOCC1)C(=O)Nc1ccc(F)cc1 | > 100
C[C@H]1[C@H]2[C@H]3CC[C@@H]4[C@@]5(C)CC[C@H](O)C(C)(C)[C@@H]5CC[C@@]4(C)[C@]3(C)C[C@H](O)[C@@]2(C)C[C@H]2O[C@]21C | 46.5
O=C(O)CCCc1nc2c(n1Cc1ccccc1)C(=O)c1ccccc1C2=O | 67.1
CCOC(=O)NC(Nc1ccc(C)cc1)(C(F)(F)F)C(F)(F)F | > 100
CCOC(=O)CCC(NC(=O)Cc1ccc(Nc2nc3cc(F)c(F)cc3nc2C(=O)OCC)cc1)C(=O)OCC (centres undefined) | > 100
[N-]=[N+]=Nc1c([N+](=O)[O-])c(=O)n(-c2ccccc2)c2ccccc12 | 83.2

What follows are compounds tested on RXF 393 renal (assay: DTP human tumour cell line panel, 48 h).

SMILES | TGI [µM]
Cc1ccc(S(=O)(=O)c2[nH]cc(/C(=C\C3CCCCC3)[N+](=O)[O-])c2C2CCCCC2)cc1 | 0.407
Nc1ccc2c(c1)C(=O)N1CCC[C@H]1C(=O)N2 | > 100
Cc1ccc2c(c1)C(=S)N1CSCC1c1nncn1-2 (centres undefined) | > 100
CC1(C)C(C#N)C1C1=C(N2CCOCC2)[C@]2(C)C(OC(=O)c3ccccc3)CC[C@@H]2C1 (some centres undefined) | > 100
COc1cccc(C2c3cc4c(cc3OC(N3CCCCC3)C2C)OCO4)c1O (centres undefined) | 18.7
N#Cc1n[nH]n(-c2ccc(Br)cc2)c1=O | > 100
COc1cccc(C(=O)Oc2ccc(OS(=O)(=O)c3ccc(C)cc3)cc2)c1C#N | > 100
CC1=C(C)CC2C(=O)N(c3cc(C(C)(C)C)ccc3C(C)(C)C)C(=O)C2C1 (centres undefined) | 74.9
O=[N+]([O-])c1ccc(CN(CCCl)OCCCl)cc1 | > 100
O=c1[nH]cnc2c1cnn2Cc1cn(CCCCO)nn1 | > 100
CN1CCc2c([nH]c3ccccc23)C1 | > 100
CCCNC(=O)NNC(=O)c1c[nH]c2nc(C)ccc2c1=O | > 100
O=C(Nc1ccccc1)c1cc(S(=O)(=O)NC2=NC(c3ccccc3)c3cc(Cl)ccc3N2)c(SSc2cc(Cl)c(C(=O)Nc3ccccc3)cc2S(=O)(=O)NC2=NC(c3ccccc3)c3cc(Cl)ccc3N2)cc1Cl (centres undefined) | > 100
COc1ccc(C2SC(N)=Nc3c2c(C)nn3C(=O)c2ccncc2)cc1OC (centres undefined) | > 10
CC1CC(OP(=O)(OCc2ccccc2)OCc2ccccc2)[C@@H](OCc2ccccc2)C(OCc2ccccc2)C1OCc1ccccc1 (some centres undefined) | 9.8
CCO/C(O)=C(/C(=N)N1CCOCC1)C(=O)Nc1ccc(F)cc1 | > 100
C[C@H]1[C@H]2[C@H]3CC[C@@H]4[C@@]5(C)CC[C@H](O)C(C)(C)[C@@H]5CC[C@@]4(C)[C@]3(C)C[C@H](O)[C@@]2(C)C[C@H]2O[C@]21C | 35.1
[N-]=[N+]=Nc1c([N+](=O)[O-])c(=O)n(-c2ccccc2)c2ccccc12 | 38.9
